Tests used:
[1] = Pharmacokinetics of alcohol (ethanol) in plasma
Method: (§1) The study was a randomized, single-blinded (the participants were informed that they could receive different doses of alcohol in the two sessions), and crossover clinical trial. Subjects participated in two different experimental sessions separated by at least 3 days. In one session they received a glass of water (240 mL) and 2 h later a single oral dose of alcohol was administered (0.5 g/kg, Vodka Absolut® 40°, Sweden); in the other, they were given four capsules containing a soy extract product with a glass of water (240 mL) and 2 h later the same dose of alcohol.
Blood samples and ethanol breath concentrations were collected at baseline (before soy extract administration), and at 2 (before ethanol administration), 2.25, 2.5, 2.75, 3, 4, 5, 6, 7, 8, 10, and 24 h after soy extract administration. Ethanol was determined in blood (DRI® Ethyl Alcohol Assay, Thermo Fisher, Fremont, CA, United States) and breath (Alcotest, Dräger, Germany). Daidzein, genistein, and the endogenous metabolite equol were determined by liquid chromatography coupled to tandem mass spectrometry (LC/MS/MS) using a validated method ([Rodríguez-Morató et al., 2015]).
Peak concentration (Cmax), time to reach peak concentrations (Tmax), and area under the concentration-time curve from 0 to 10 h (AUC0-10) from ethanol plasma concentrations over time were determined using Pharmacokinetic Functions for Microsoft Excel (Joel Usansky, Atul Desai, and Diane Tang-Liu, Department of Pharmacokinetics and Drug Metabolism, Allergan, Irvine, CA, United States).

healthy male volunteers [2] = assay: Addiction Research Center Inventory (ARCI) 49-item short form questionnaire; assay type: in vivo, human; settings: n = 10
healthy male volunteers [3] = assay: Physiological effects (vital signs: SBP, DBP, HR, oral and cutaneous facial temperature) after alcohol with or without soy extract; settings: difference with respect to baseline; for FT Emax: cutaneous facial temperature
Method: as §1
Non-invasive systolic blood pressure (SBP), diastolic blood pressure (DBP), heart rate (HR), oral and cutaneous facial temperature (OT, FT) were repeatedly recorded at baseline, immediately before capsule administration, and at 2 (immediately before beverage administration), 2.5, 3, 4, 5, 6, 8, and 10 h after first administration. All assessments were carried out with a DinamapTM 8100-T vital signs monitor (Critikon, Tampa, FL, United States). Cutaneous facial temperature was measured at the same time with an additional monitor (Critikon, Tampa, FL, United States).
(§2) Differences with respect to baseline were calculated for vital signs (SBP, DBP, HR, and OT-FT) and subjective effects (VAS, ARCI). Maximum/peak effects (Emax) and the time to reach maximum effects (tmax) were also determined for the previously mentioned variables. The area under the curve of the concentrations from 0 to 10 h (AUC0-10 h) using the trapezoidal rule was calculated for vital signs and subjective effects.
(§3) For the statistical comparison of AUC and Emax a Student’s t-test for paired samples was employed. For tmax a non-parametric Wilcoxon test was used. A repeated measure ANOVA with two factors (treatment and time) was used to compare the time course of effects. When treatment or the treatment × time interaction was statistically significant, multiple Tukey post hoc comparisons were performed at each time point.

healthy male volunteers [4] = assay: Subjective and adverse effects by visual analog scales (VAS, 100 mm)
Method: as §1
Subjective effects were evaluated using a set of visual analog scales (VAS) at baseline (0 h), 2, 2.25, 2.5, 2.75, 3, 3.5, 4, 5, 6, 8, and 10 h after first administration. VAS (100 mm) were labeled with different adjectives marked at opposite ends from “not at all” to “extremely” ([Peiró et al., 2013]; [Farré et al., 2015]; [Papaseit et al., 2016]). Subjects were asked to rate effects of drunkenness, content, nausea, vertigo, dizziness, feeling of face flushing, headache, and breathing difficulty.
as §2, §3

male mice = system: male mice; design: method as in Martin et al., 2013; settings: ref Martin et al., 2013; cited from earlier work
[5] = Plasma concentrations of daidzein, genistein and equol after soy extract (LC/MS/MS); settings: for Tmax / Cmax: human
Method: as §1
A commercial soy extract product (Super-Absorbable Soy Isoflavones®, hard gelatin capsules, Life-Extension, United States) was employed. According to the manufacturer each capsule contained 54 mg of total isoflavones (22 mg daidzin-daidzein, 28 mg genistin-genistein, and 4 mg glycitin-glycitein).
Ethanol was determined in blood (DRI® Ethyl Alcohol Assay, Thermo Fisher, Fremont, CA, United States) and breath (Alcotest, Dräger, Germany).

[6] = alcohol 0.5 g/kg oral, 2 h after soy extract (four capsules) or water, Mean ± SD, n = 10
[7] = difference with respect to baseline, AUC 0-10 h, n = 10
[8] = difference with respect to baseline, peak effect, n = 10

## CCO [Alcohol, ethanol]
[1]; 10 h after drug administration
  alcohol concentrations in plasma 10 h after drug administration: undetectable
[1]; [6]
  AUC0-10 of alcohol in plasma: 219.67 ± 27.2 ng/mL/h
  Cmax of alcohol in plasma: 77 ± 22.25 ng/mL
Healthy male volunteers [2]; euphoria subscale, AUC 0-10 h
  ARCI-MBG AUC0-10: 3.4 ± 3.2
Healthy male volunteers [2]; euphoria subscale, difference with respect to baseline, peak effect
  ARCI-MBG Emax: 2.7 ± 3.3
Healthy male volunteers [2]; first ARCI-LSD line of Table 1 (r36), dysphoria and somatic symptoms subscale, peak effect
  ARCI-LSD Emax: 5.2 ± 1.7
Healthy male volunteers [2]; first ARCI-LSD line of Table 1 (r37), AUC 0-10 h
  ARCI-LSD AUC0-10: 43.2 ± 8.27
Healthy male volunteers [2]; line printed ARCI-BG ARCI-A (r40), peak effect
  ARCI-BG ARCI-A Emax: 1.8 ± 1.686
Healthy male volunteers [2]; line printed ARCI-BG ARCI-A (r41), AUC 0-10 h
  ARCI-BG ARCI-A AUC0-10: 4.5 ± 4.47
Healthy male volunteers [2]; second line printed ARCI-LSD in Table 1 (r38), peak effect
  ARCI-LSD Emax: 4.6 ± 1.07
Healthy male volunteers [2]; second line printed ARCI-LSD in Table 1 (r39), AUC 0-10 h
  ARCI-LSD AUC0-10: 36.7 ± 5.5
Healthy male volunteers [2]; sedation subscale, AUC 0-10 h
  ARCI-PCAG AUC0-10: 14.05 ± 14.2
Healthy male volunteers [2]; sedation subscale, difference with respect to baseline, peak effect
  ARCI-PCAG Emax: 3.4 ± 3.59
Healthy male volunteers [3]; peak effect, n = 10
  FT Emax: 1.59 ± 0.67 °C
Healthy male volunteers [3]; peak effect, n = 10, listed as alcohol
  FT Emax: 1.59 °C
Healthy male volunteers [3]; diastolic blood pressure, peak effect, n = 10
  DBP Emax: –10.5 ± 8.72 mmHg
Healthy male volunteers [3]; heart rate, peak effect, n = 10
  HR Emax: –1.2 ± 15.26 beats/min
Healthy male volunteers [3]; oral temperature, peak effect, n = 10
  OT Emax: –0.23 ± 0.47
Healthy male volunteers [3]; systolic blood pressure, peak effect, n = 10
  SBP Emax: –9.2 ± 11.05 mmHg
Healthy male volunteers [3]; time course, 2 h after first administration, p < 0.05
  reduction of DBP at 2 h: -2.89
Healthy male volunteers [3]; time course, 3 h after first administration, p < 0.05
  reduction of DBP at 3 h: -4.5
Healthy male volunteers [3]; time course, 4 h after first administration, p < 0.01
  reduction of DBP at 4 h: -9.67
Healthy male volunteers [3]; time course, 8 h after first administration, p < 0.05
  reduction of DBP at 8 h: -4.78
Healthy male volunteers [4]; 8 h after first administration, p < 0.01
  VAS score for headache at 8 h: 16 mm
Healthy male volunteers [4]; [7]
  VAS Content AUC0-10: 29.91 ± 47.07
  VAS Drunkenness AUC0-10: 25.387 ± 35.1
Healthy male volunteers [4]; [8]
  VAS Breathing difficulty Emax: 0 mm
  VAS Content Emax: 23.9 ± 26.2 mm
  VAS Dizziness Emax: 10.9 ± 18.3 mm
  VAS Drunkenness Emax: 20.8 ± 19.1 mm
  VAS Face flushing Emax: 9.6 ± 14.9 mm
  VAS Headache Emax: 16.2 ± 27.9 mm
  VAS Nausea Emax: 0.8 ± 1.75 mm
  VAS Vertigo Emax: 2.2 ± 6.9 mm

## O=c1c(-c2ccc(O)cc2)coc2cc(O)ccc12 [daidzein]
Male mice
  cocaine-reinforcing effects: decreased
  cue-induced cocaine relapse: reduced
[5]; after four capsules of soy extract, oral, n = 10
  time of peak plasma concentration: around 6 h
[5]; plasma, oral, 4 capsules, Tmax for the first peak, first of double peaks in plasma after soy extract
  Tmax: 2 to 4 h
[5]; plasma, po, 4 capsules
  Cmax: 1020 ng/mL
[5]; plasma, po, 4 capsules, time of peak plasma concentration, after four capsules of soy extract, oral, n = 10
  Tmax: 6.1 h

## Oc1ccc([C@H]2COc3cc(O)ccc3C2)cc1 [equol]
[5]; in vivo, po, time of peak plasma concentration
  Tmax: 24 h

## O=c1c(-c2ccc(O)cc2)coc2cc(O)cc(O)c12 [genistein]
Male mice
  cocaine-reinforcing effects: decreased
  cue-induced cocaine relapse: not
[5]; in vivo, 4 capsules, Tmax for the first peak, first of double peaks in plasma after soy extract
  Tmax: 2 to 4 h
[5]; in vivo, po, 4 capsules
  Cmax: 1040 ng/mL
[5]; in vivo, po, 4 capsules, time of peak plasma concentration, after four capsules of soy extract, oral, n = 10
  Tmax: 7.3 h

Source: PMC6400998, “Soy Isoflavone Extract Does Not Increase the Intoxicating Effects of Acute Alcohol Ingestion in Human Volunteers” (Frontiers in Pharmacology, 2019)
